In patent publication US20120083522A1, “MODULATION OF INFLAMMATORY RESPONSES BY FACTOR XI” (Isis Pharmaceuitcals, inc., priority 2009, published 2012):
In the oligonucleotide strings, read from the 5' end, every base follows the letter of its sugar. An asterisk marks phosphorothioate; unmarked linkages are phosphodiester. Other units and linkages are bracketed, terminal groups are in braces. A string of capitals states the bases alone. e = 2'-O-(2-methoxyethyl) (MOE); [5mC] = 5-methylcytosine; d = 2'-deoxy (DNA)

What was measured:
Format in all cases: in vivo
[1] = Tolerability in CD1 mice: kidney function (Example 17); conditions: plasma, 50 mg/kg s.c. twice a week
Excerpt: Results are presented in Tables 62 and 63, expressed in mg/dL.

[2] = Tolerability in Sprague-Dawley rats: hematology assays (Example 19); conditions: 50 mg/kg s.c. twice per week for 6 weeks
Excerpt: (§1) Urine samples were taken before the start of treatment.

[3] = Tolerability in Sprague-Dawley rats: liver function (Example 19); conditions: plasma, 50 mg/kg s.c. twice per week for 6 weeks, 50 mg/kg
Excerpt: as §1

[4] = Tolerability in CD1 mice: hematology assays (Example 17); conditions: for lymphocyte count / monocyte count / neutrophil count: percent of total blood cell count; for HCT / MCH / MCHC / MCV / WBC count: blood, 50 mg/kg s.c. twice a week
Protocol: A control group of five mice was injected subcutaneously with PBS for 2 weeks. All experimental groups (i.e. ASO treated mice at 2, 4, 6 weeks) were compared to the control group (i.e. PBS, 2 weeks).
Blood obtained from all mice groups were sent to Antech Diagnostics for hematocrit (HCT), mean corpuscular volume (MCV), mean corpuscular hemoglobin (MCH), and mean corpuscular hemoglobin concentration (MCHC) measurements and analyses, as well as measurements of the various blood cells, such as WBC (neutrophils, lymphocytes, and monocytes), RBC, and platelets, and total hemoglobin content. Percentages given in the tables indicate the percent of total blood cell count.

[5] = Tolerability in CD1 mice: liver function (Example 17); parameters: Albumin: unit not given here; conditions: plasma, 50 mg/kg s.c. twice a week, 50 mg/kg
[6] = Tolerability in Sprague-Dawley rats: kidney function (Example 19); conditions: Sprague-Dawley rats, plasma, 50 mg/kg s.c. twice per week for 6 weeks; 50 mg/kg
Excerpt: as §1

[7] = Tolerability in Sprague-Dawley rats: hematology assays (Example 19); conditions: 50 mg/kg s.c. twice per week for 6 weeks, 50 mg/kg

Sequence: GCCCTTCATGTCTAGGTCCA [ISIS 416892] (eG*e[5mC]*e[5mC]*d[5mC]*dT*dT*d[5mC]*dA*dT*dG*dT*d[5mC]*dT*dA*dG*dG*dT*e[5mC]*e[5mC]*eA) [3-14-3 MOE gapmer]
- BUN ([1]; 2 weeks, 50 mg/kg): 19 mg/dL
- creatinine ([1]; 2 weeks, 50 mg/kg): 0.11 mg/dL
- BUN ([1]; 4 weeks, 50 mg/kg): 28 mg/dL
- creatinine ([1]; 4 weeks, 50 mg/kg): 0.20 mg/dL
- creatinine ([1]; 6 weeks): 0.17 mg/dL
- BUN ([1]; 6 weeks, 50 mg/kg): 23 mg/dL
- Lymphocytes ([2]; 50 mg/kg): 18%
- Monocytes ([2]; 50 mg/kg): 58%
- Neutrophils ([2]; 50 mg/kg): 92%
- RBC ([2]; 50 mg/kg): 12 pL⁻¹
- MCH ([2]; title says % control): 2 pg
- Hemoglobin ([2]; title says % control, 50 mg/kg): 14 g/dL
- MCHC ([2]; title says % control, 50 mg/kg): 0%
- ALT [3]: 113 IU/L
- AST [3]: 183 IU/L
- Albumin [3]: 8 mg/dL
- Bilirubin [3]: 1 mg/dL
- RBC count ([4]; 2 weeks): 7 cells/pL
- hemoglobin content ([4]; 2 weeks): 13.0 g/dL
- platelet count ([4]; 2 weeks): 1687 cells/nL
- lymphocyte count ([4]; 2 weeks): 79%
- monocyte count ([4]; 2 weeks): 3%
- neutrophil count ([4]; 2 weeks): 19%
- RBC count ([4]; 4 weeks): 9 cells/pL
- hemoglobin content ([4]; 4 weeks): 13.5 g/dL
- platelet count ([4]; 4 weeks): 636 cells/nL
- lymphocyte count ([4]; 4 weeks): 52%
- monocyte count ([4]; 4 weeks): 6%
- neutrophil count ([4]; 4 weeks): 43%
- RBC count ([4]; 6 weeks): 9 cells/pL
- hemoglobin content ([4]; 6 weeks): 13.1 g/dL
- platelet count ([4]; 6 weeks): 1004 cells/nL
- lymphocyte count ([4]; 6 weeks): 64%
- monocyte count ([4]; 6 weeks): 7%
- neutrophil count ([4]; 6 weeks): 28%
- HCT ([4]; 2 weeks, 50 mg/kg): 48%
- MCH ([4]; 2 weeks, 50 mg/kg): 18 pg
- MCHC ([4]; 2 weeks, 50 mg/kg): 30%
- MCV ([4]; 2 weeks, 50 mg/kg): 59 fL
- WBC count ([4]; 2 weeks, 50 mg/kg): 5 cells/nL
- MCH ([4]; 4 weeks): 16 pg
- WBC count ([4]; 4 weeks): 8 cells/nL
- HCT ([4]; 4 weeks, 50 mg/kg): 42%
- MCHC ([4]; 4 weeks, 50 mg/kg): 32%
- MCV ([4]; 4 weeks, 50 mg/kg): 49 fL
- HCT ([4]; 6 weeks, 50 mg/kg): 45%
- MCH ([4]; 6 weeks, 50 mg/kg): 16 pg
- MCHC ([4]; 6 weeks, 50 mg/kg): 30%
- MCV ([4]; 6 weeks, 50 mg/kg): 53 fL
- WBC count ([4]; 6 weeks, 50 mg/kg): 9 cells/nL
- ALT ([5]; 2 weeks): 66 IU/L
- AST ([5]; 2 weeks): 121 IU/L
- Albumin ([5]; 2 weeks): 3.2
- Bilirubin ([5]; 2 weeks): 0.38 mg/dL
- ALT ([5]; 4 weeks): 1526 IU/L
- AST ([5]; 4 weeks): 1347 IU/L
- Albumin ([5]; 4 weeks): 4.0
- Bilirubin ([5]; 4 weeks): 2.99 mg/dL
- ALT ([5]; 6 weeks): 1939 IU/L
- AST ([5]; 6 weeks): 1443 IU/L
- Albumin ([5]; 6 weeks): 4.4
- Bilirubin ([5]; 6 weeks): 0.50 mg/dL
- BUN [6]: 188 mg/dL
- creatinine [6]: 1 mg/dL
- Platelets [7]: 66 10^3/μL
- WBC [7]: 68 nL⁻¹
- HCT ([7]; title says % control): 13%
- MCV ([7]; title says % control): 1 fL
